From PMC9909341, “TLQP-21 is a low potency partial C3aR activator on human primary macrophages” (Frontiers in Immunology, 2023)

Tests used:
[1] = system: BMDM (murine C3aR); assay type: cell-based, mouse
Procedure: (§1) Mouse bone marrow-derived macrophages (BMDMs) were obtained and cultured as previously described ([20], [21]). All experiments using mice were approved by the University of Queensland animal ethics committee. Wild-type and C3aR^-/- mice on a C57BL/6J genetic background (n = 3) were sacrificed by cervical dislocation. The tibia was removed and sterilised. Upon removal of both epiphyses, bone marrow cells were harvested by flushing the central cavity with complete RPMI-1640 medium using a 10 ml syringe attached to a 25-gauge needle. Cells were then cultured in complete RPMI-1640 medium (containing 10 % FBS, 100 IU/ml penicillin, 100 μg/ml streptomycin) supplemented with 100 ng/ml recombinant human macrophage colony stimulating factor on 10 mm square dishes. Mature adherent macrophages for assays were harvested on day 6-7 by gentle scraping.
Ligand-induced ERK1/2 phosphorylation was assessed using the AlphaLISA Surefire Ultra p-ERK1/2 (Thr202/Tyr204) kit (PerkinElmer, Melbourne, Australia) following the manufacturer’s protocol as previously described ([18], [20], [22]). Briefly, CHO-K1, CHO-C3aR, CHO-C5aR1, HMDMs (50,000/well) or BMDMs (90,000/well) were seeded in tissue culture-treated 96-well plates (Corning, Corning, USA) for 24 h and serum-starved overnight. All ligand dilutions were prepared in serum-free medium (SFM) containing 0.1% BSA. For inhibition assays, cells were pre-treated with the following ligands (5 µM SB290157, or respective concentrations of hC3a, mC3a, hC5a, hTLQP-21, and mTLQP-21) or the solvent-only control for 30 min before agonist (hC3a, hTLQP-21 and mTLQP-21) addition. The concentration and identity of the ligands are described in detail in the figure legends. For stimulation, cells were treated with ligands at the indicated concentrations for 10 min at RT and then immediately lysed using AlphaLISA lysis buffer on a microplate shaker (450 rpm, 10 min). For the detection of phospho-ERK1/2 content, cell lysate (5 μL/well) was transferred to a 384-well ProxiPlate (PerkinElmer, Melbourne, Australia) and added to the donor and acceptor reaction mix (2.5 μL/well, respectively), followed by a 2-h incubation at RT in the dark. On a Tecan Spark 20M (Tecan, Männedorf, Switzerland), the plate was measured using standard AlphaLISA settings.
All experiments were conducted in triplicates and repeated on three separate occasions unless otherwise specified. Data was analysed using GraphPad software (Prism 9.1). Data from each individual repeat was normalised accordingly (as specified in the figure legends) before being combined and expressed as mean ± standard error of the mean (S.E.M.) unless otherwise described. For all dose-response studies, logarithmic concentration-response curves were plotted using combined data and analysed to determine the respective potency values. Statistical analysis was performed using two-way ANOVA with Dunnett’s post hoc analysis. Donor-matched comparisons were made for HMDM experiments. Differences were deemed significant when p < 0.05.
Figure 4 TLQP-21 triggers ERK signalling through C3aR in murine bone marrow-derive macrophages. BMDMs (90,000/well) from wildtype mice (A) or with C3aR knockout mice (B), were serum-starved overnight and then stimulated with respective ligands at the indicated concentrations for 10 min. The phospho-ERK1/2 content in the cell lysate was measured and normalised to the medium only-treated levels before being combined. Data represent mean ± S.E.M. of triplicate measurements using cells from 3 mice (n = 3).

[2] = system: HMDMs; assay: homologous desensitisation control in HMDMs; assay type: cell-based, human; conditions: pre-treatment 10 nM hC3a, 10 μM hTLQP-21 or mTLQP-21 for 30 min, then same ligand 10 min
Description: HMDMs were generated and cultured as previously described ([20]), with experiments approved by The University of Queensland Human Research Ethics Committee. Briefly, human buffy coat blood from anonymous healthy donors was obtained through the Australian Red Cross Blood Service (Brisbane, Australia). Human CD14+ monocytes were isolated from blood using Lymphoprep density centrifugation (STEMCELL, Melbourne, Australia) followed by CD14+ MACS magnetic bead separation (Miltenyi Biotec, Sydney, Australia). […]
(§2) Ligand-induced ERK1/2 phosphorylation was assessed using the AlphaLISA Surefire Ultra p-ERK1/2 (Thr202/Tyr204) kit (PerkinElmer, Melbourne, Australia) following the manufacturer’s protocol as previously described ([18], [20], [22]). […] On a Tecan Spark 20M (Tecan, Männedorf, Switzerland), the plate was measured using standard AlphaLISA settings.
Figure 3 Agonistic and antagonistic activities of hTLQP-21 and mTLQP-21 in human monocyte-derived macrophages. […] The phospho-ERK1/2 content in the cell lysate was measured and normalised to the maximum hC3a/hC5a-induced levels before being combined. […]

[3] = system: C3aR-deficient BMDMs; assay: phospho-ERK1/2 assay in C3aR-deficient BMDMs; assay type: cell-based, mouse; conditions: 10 min stimulation; n = 3 mice
Procedure: as §1, with “Mature adherent macrophages for assays were harvested on day 6-7 by gentle scraping.” left out
as §2
Figure 4 TLQP-21 triggers ERK signalling through C3aR in murine bone marrow-derive macrophages. […] The phospho-ERK1/2 content in the cell lysate was measured and normalised to the medium only-treated levels before being combined. […]

Row | Substance | % C3a activity ± SE, BMDM ([1]; relative to mC3a, wild-type BMDMs) | logEC50 ± SE (pERK1/2), BMDM ([1]; wild-type BMDMs, 10 min stimulation at RT, C3a is recombinant mouse C3a) | EC50 ([1]; wild-type C57BL/6J BMDMs, 90,000/well, 10 min stimulation at RT, AlphaLISA p-ERK1/2, n = 3 mice, C3a is recombinant mouse C3a, read-out: EC50 (pERK1/2), BMDM) | homologous desensitisation of ERK activity [2] | ERK signalling in C3aR-deficient BMDMs [3]
1 | C3a: Table 1 label: human C3a in CHO-C3aR and HMDM, recombinant mouse C3a in BMDM | 100 ± 4.1% | -8.1 ± 0.1 | 8.4 nM | – | –
2 | hC3a: purified (plasma-derived) human C3a, purchased from Merck | – | – | – | significantly dampened the subsequent ERK activity triggered by these ligands | Neither hC3a, nor the TLQP-21 peptides caused any significant ERK signalling activity in C3aR-deficient cells
